From patent publication US9265253B2, “Use of macrocyclic picolinamides as fungicides” (DOW AGROSCIENCES LLC, priority 2013, dated 2016)

Tests used:
Assay type in all cases: in vivo
[1] = tested on: Blumeria graminis f. sp. hordei; Synonym: Erysiphe graminis f. sp. hordei; assay: Barley Powdery Mildew (ERYSGH) disease control; details: 1 Day Protectant; for pest or weed control at 100 ppm: Blumeria graminis, 24 h, read-out: Disease Control ERYSGH 1 DP; for Disease Control ERYSGH 1 DP: 100 ppm
Experimental: (§1) Technical grades of materials were dissolved in acetone, which were then mixed with nine volumes of water containing 110 ppm Triton X-100. The fungicide solutions were applied onto wheat seedlings using an automated booth sprayer to run-off. All sprayed plants were allowed to air dry prior to further handling. All fungicides were evaluated using the aforementioned method for their activity vs. all target diseases. Wheat leaf blotch and brown rust activity were also evaluated using track spray applications, in which case the fungicides were formulated as EC formulations, containing 0.1% Trycol 5941 in the spray solutions. Wheat plants (variety Yuma) were grown from seed in a greenhouse in 50% mineral soil/50% soil-less Metro mix until the first leaf was fully emerged, with 7-10 seedlings per pot. These plants were inoculated with an aqueous spore suspension of Septoria tritici either prior to or after fungicide treatments. After inoculation the plants were kept in 100% relative humidity (one day in a dark dew chamber followed by two to three days in a lighted dew chamber at 20° C.) to permit spores to germinate and infect the leaf. The plants were then transferred to a greenhouse set at 20° C. for disease to develop. When disease symptoms were fully expressed on the 1st leaves of untreated plants, infection levels were assessed on a scale of 0 to 100 percent disease severity. Percent disease control was calculated using the ratio of disease severity on treated plants relative to untreated plants. Barley seedlings (variety Harrington) were propagated in soil-less Metro mix, with each pot having 8 to 12 plants, and used in the test when first leaf was fully emerged. Test plants were inoculated by dusting with infected stock plants 24 hr after fungicide treatments. After inoculation the plants were kept in a greenhouse set at 20° C. for disease to develop. Fungicide formulation, application and disease assessment on the sprayed leaves followed the procedures as described in the Example A.

Rhyncosporium secalis = assay: Barley Scald (RHYNSE) disease control; details: 1 Day Protectant; for pest or weed control at 100 ppm: Hordeum vulgare, 24 h, read-out: Disease Control RHYNSE 1 DP
Experimental: as §1, with “inoculated by an aqueous spore suspension of Rhyncosporium secalis 24 hr” for “inoculated by dusting with infected stock plants 24 hr”, “kept in a dew room at 20° C. with 100% relative humidity for 48 hr. The plants were then transferred to a greenhouse” for “kept in a greenhouse”

[2] = tested on: Magnaporthe grisea; Anamorph: Pyricularia oryzae; assay: whole plant or invertebrate; details: for pest or weed control at 100 ppm: Pyricularia oryzae, topical, 24 h, read-out: Disease Control PYRIOR 1 DP
[3] = tested on: Glomerella lagenarium; Anamorph: Colletotrichum lagenarium; assay: Cucumber Anthracnose (COLLLA) disease control; details: 1 Day Protectant; for pest or weed control at 100 ppm: Colletotrichum orbiculare, topical, 24 h, read-out: Disease Control COLLLA 1 DP
Experimental: Technical grades of materials were dissolved in acetone, which were then mixed with nine volumes of water containing 110 ppm Triton X-100. The fungicide solutions were applied onto wheat seedlings using an automated booth sprayer to run-off. All sprayed plants were allowed to air dry prior to further handling. All fungicides were evaluated using the aforementioned method for their activity vs. all target diseases. Wheat leaf blotch and brown rust activity were also evaluated using track spray applications, in which case the fungicides were formulated as EC formulations, containing 0.1% Trycol 5941 in the spray solutions. Wheat plants (variety Yuma) were grown from seed in a greenhouse in 50% mineral soil/50% soil-less Metro mix until the first leaf was fully emerged, with 7-10 seedlings per pot. These plants were inoculated with an aqueous spore suspension of Septoria tritici either prior to or after fungicide treatments. After inoculation the plants were kept in 100% relative humidity (one day in a dark dew chamber followed by two to three days in a lighted dew chamber at 20° C.) to permit spores to germinate and infect the leaf. The plants were then transferred to a greenhouse set at 20° C. for disease to develop. When disease symptoms were fully expressed on the 1st leaves of untreated plants, infection levels were assessed on a scale of 0 to 100 percent disease severity. Percent disease control was calculated using the ratio of disease severity on treated plants relative to untreated plants. Cucumber seedlings (variety Bush Pickle) were propagated in soil-less Metro mix, with each pot having one plant, and used in the test when 12 to 14 days old. Test plants were inoculated with an aqueous spore suspension of Colletotrichum lagenarium 24 hr after fungicide treatments. After inoculation the plants were kept in a dew room at 22° C. with 100% relative humidity for 48 hr to permit spores to germinate and infect the leaf. The plants were then transferred to a growth room set at 22° C. for disease to develop. Fungicide formulation, application and disease assessment on the sprayed leaves followed the procedures as described in the Example A.

## C=C[C@H]1CCC[C@H](NC(=O)c2nccc(OC)c2OCOC(C)=O)C(=O)O[C@@H](C)[C@@H]1Oc1ccccc1 [Compound F146]
[1]
  pest or weed control at 100 ppm: 0 to 80%
Rhyncosporium secalis
  pest or weed control at 100 ppm: 80 to 100%
[2]
  pest or weed control at 100 ppm: 80 to 100%
[3]
  pest or weed control at 100 ppm: 80 to 100%

## CCOCC(=O)OCOc1c(OC)ccnc1C(=O)N[C@H]1CCC[C@H](Cc2ccc(F)cc2F)[C@@H](OC(=O)c2ccco2)[C@H](C)OC1=O [Compound F193]
[1]
  pest or weed control at 100 ppm: 0 to 80%
Rhyncosporium secalis
  pest or weed control at 100 ppm: 80 to 100%
[2]
  pest or weed control at 100 ppm: 80 to 100%
[3]
  pest or weed control at 100 ppm: 80 to 100%

## CCCO[C@@H]1[C@@H](Cc2ccc(F)cc2)CCC[C@H](NC(=O)c2nccc(OC)c2OCOC(C)=O)C(=O)O[C@H]1C [Compound F101]
[1]
  pest or weed control at 100 ppm: 80 to 100%
Rhyncosporium secalis
  pest or weed control at 100 ppm: 80 to 100%
[2]
  pest or weed control at 100 ppm: 80 to 100%
[3]
  pest or weed control at 100 ppm: 80 to 100%

## CCOCC(=O)OCOc1c(OC)ccnc1C(=O)N[C@H]1CCC[C@H](Cc2ccccc2)[C@@H](OCC2CC2)[C@H](C)OC1=O [Compound F173]
[1]
  pest or weed control at 100 ppm: 80 to 100%
Rhyncosporium secalis
  pest or weed control at 100 ppm: 80 to 100%
[2]
  pest or weed control at 100 ppm: 80 to 100%
[3]
  pest or weed control at 100 ppm: 80 to 100%

## CCOCC(=O)OCOc1c(OC)ccnc1C(=O)N[C@H]1CCC[C@H](Cc2ccc(F)cc2)[C@@H](OCC2CC2)[C@H](C)OC1=O [Compound F164]
[1]
  pest or weed control at 100 ppm: 80 to 100%
Rhyncosporium secalis
  pest or weed control at 100 ppm: 80 to 100%
[2]
  pest or weed control at 100 ppm: 80 to 100%
[3]
  pest or weed control at 100 ppm: 80 to 100%

## CCO[C@@H]1[C@@H](Cc2ccccc2)CCC[C@H](NC(=O)c2nccc(OC)c2OC(C)=O)C(=O)O[C@H]1C [Compound F87]
[1]
  pest or weed control at 100 ppm: 80 to 100%
Rhyncosporium secalis
  pest or weed control at 100 ppm: 80 to 100%
[2]
  pest or weed control at 100 ppm: 80 to 100%
[3]
  pest or weed control at 100 ppm: 80 to 100%

## CCCO[C@@H]1[C@@H](Cc2ccccc2)CCC[C@H](NC(=O)c2nccc(OC)c2OC(=O)CCOC)C(=O)O[C@H]1C [Compound F198]
[1]
  pest or weed control at 100 ppm: 80 to 100%
Rhyncosporium secalis
  pest or weed control at 100 ppm: 80 to 100%
[2]
  pest or weed control at 100 ppm: 80 to 100%
[3]
  pest or weed control at 100 ppm: 80 to 100%

## COc1ccnc(C(=O)N[C@H]2CCC[C@H](Cc3ccc(F)cc3)[C@@H](OCC3CC3)[C@H](C)OC2=O)c1OCOC(C)=O [Compound F98]
[1]
  Disease Control ERYSGH 1 DP: A (80-100)
Rhyncosporium secalis; 100 ppm
  Disease Control RHYNSE 1 DP: A (80-100)
[2]; 100 ppm, 1 Day Protectant, Rice Blast
  Disease Control PYRIOR 1 DP: A (80-100)
[3]; 100 ppm
  Disease Control COLLLA 1 DP: A (80-100)

## COc1ccnc(C(=O)N[C@H]2CCC[C@H](Cc3ccccc3)[C@@H](OCC3CC3)[C@H](C)OC2=O)c1OCOC(C)=O [Compound F107]
[1]
  pest or weed control at 100 ppm: 80 to 100%
Rhyncosporium secalis
  pest or weed control at 100 ppm: 80 to 100%
[2]
  pest or weed control at 100 ppm: 80 to 100%
[3]
  pest or weed control at 100 ppm: 80 to 100%

## COc1ccnc(C(=O)N[C@H]2CCC[C@H](CC3CCCC3)[C@@H](OCC3CC3)[C@H](C)OC2=O)c1OCOC(C)=O [Compound F117]
[1]
  pest or weed control at 100 ppm: 80 to 100%
Rhyncosporium secalis
  pest or weed control at 100 ppm: 80 to 100%
[2]
  pest or weed control at 100 ppm: 80 to 100%
[3]
  pest or weed control at 100 ppm: 80 to 100%

## COc1ccnc(C(=O)N[C@H]2CCC[C@H](Cc3ccccc3)[C@@H](Oc3ccccc3)[C@H](C)OC2=O)c1OCOC(C)=O [Compound F108]
[1]
  pest or weed control at 100 ppm: 0 to 80%
Rhyncosporium secalis
  pest or weed control at 100 ppm: 80 to 100%
[2]
  pest or weed control at 100 ppm: 80 to 100%
[3]
  pest or weed control at 100 ppm: 80 to 100%

## COc1ccnc(C(=O)N[C@H]2CCC[C@H](Cc3ccccc3)[C@@H](OCC(C)C)[C@H](C)OC2=O)c1OC(C)=O [Compound F70]
[1]
  pest or weed control at 100 ppm: 80 to 100%
Rhyncosporium secalis
  pest or weed control at 100 ppm: 80 to 100%
[2]
  pest or weed control at 100 ppm: 80 to 100%
[3]
  pest or weed control at 100 ppm: 80 to 100%

## COc1ccnc(C(=O)N[C@H]2CCC[C@H](Cc3ccc(F)cc3)[C@@H](OCC3CC3)[C@H](C)OC2=O)c1OCOC(C)=O [Compound F96]
[1]
  Disease Control ERYSGH 1 DP: B (More than 0-Less than 80)
Rhyncosporium secalis
  pest or weed control at 100 ppm: 80 to 100%
[2]
  pest or weed control at 100 ppm: 80 to 100%
[3]
  pest or weed control at 100 ppm: 80 to 100%

## COc1ccnc(C(=O)N[C@H]2CCC[C@H](CCF)[C@@H](OCC(C)C)[C@H](C)OC2=O)c1OCOC(C)=O [Compound F128, ((2-(((3S,7R,8R,9S)-7-(2-fluoroethyl)-8-isobutoxy-9-methyl-2-oxooxonan-3-yl)carbamoyl)-4-methoxypyridin-3-yl)oxy)methyl acetate]
[1]
  pest or weed control at 100 ppm: 0 to 80%
Rhyncosporium secalis
  pest or weed control at 100 ppm: 0 to 80%
[2]
  pest or weed control at 100 ppm: 80 to 100%
[3]
  pest or weed control at 100 ppm: 80 to 100%

## COc1ccnc(C(=O)N[C@H]2CCC[C@H](CC(F)F)[C@@H](Oc3ccccc3)[C@H](C)OC2=O)c1OCOC(C)=O [Compound F138]
[1]
  pest or weed control at 100 ppm: 0 to 80%
Rhyncosporium secalis
  pest or weed control at 100 ppm: 0 to 80%
[2]
  pest or weed control at 100 ppm: 80 to 100%
[3]
  pest or weed control at 100 ppm: 80 to 100%

## CCCO[C@@H]1[C@@H](Cc2ccccc2)CCC[C@H](NC(=O)c2nccc(OC)c2OCOC(=O)COCC)C(=O)O[C@H]1C [Compound F174]
[1]
  pest or weed control at 100 ppm: 80 to 100%
Rhyncosporium secalis
  pest or weed control at 100 ppm: 80 to 100%
[2]
  pest or weed control at 100 ppm: 80 to 100%
[3]
  pest or weed control at 100 ppm: 80 to 100%

## COc1ccnc(C(=O)N[C@H]2CCC[C@H](Cc3ccccc3)[C@@H](OCC3CC3)[C@H](C)OC2=O)c1OCOC(=O)C(C)C [Compound F152]
[1]
  pest or weed control at 100 ppm: 80 to 100%
Rhyncosporium secalis
  pest or weed control at 100 ppm: 80 to 100%
[2]
  pest or weed control at 100 ppm: 80 to 100%
[3]
  pest or weed control at 100 ppm: 80 to 100%

## CC[C@H]1CCC[C@H](NC(=O)c2nccc(OC)c2OC(C)=O)C(=O)O[C@@H](C)[C@@H]1Oc1ccccc1 [Compound F81]
[1]
  pest or weed control at 100 ppm: 0 to 80%
Rhyncosporium secalis
  pest or weed control at 100 ppm: 80 to 100%
[2]
  pest or weed control at 100 ppm: 80 to 100%
[3]
  pest or weed control at 100 ppm: 80 to 100%

## CCOCC(=O)OCOc1c(OC)ccnc1C(=O)N[C@H]1CCC[C@H](CCOC)[C@@H](Oc2ccccc2)[C@H](C)OC1=O [Compound F183]
[1]
  pest or weed control at 100 ppm: 0 to 80%
Rhyncosporium secalis
  pest or weed control at 100 ppm: 80 to 100%
[2]
  pest or weed control at 100 ppm: 80 to 100%
[3]
  pest or weed control at 100 ppm: 80 to 100%

## CCCO[C@@H]1[C@@H](CCC(C)C)CCC[C@H](NC(=O)c2nccc(OC)c2OCOC(C)=O)C(=O)O[C@H]1C [Compound F92]
[1]
  pest or weed control at 100 ppm: 0 to 80%
Rhyncosporium secalis
  pest or weed control at 100 ppm: 80 to 100%
[2]
  pest or weed control at 100 ppm: 80 to 100%
[3]
  pest or weed control at 100 ppm: 80 to 100%
